Data taken from paper PMC10620772, “Design, synthesis, and biological evaluation of new pyrimidine-5-carbonitrile derivatives as novel anti-cancer, dual EGFR^WT/COX-2 inhibitors with docking studies” (RSC Advances, 2023).
Several values for one entry are separate records, joined by “and”; a condition that tells them apart may be missing. Equal entries are not always repeated. Entries after “also recorded” stand apart in the source; their conditions may differ.

Tests used:
Assay type in all cases: cell-based, human
[1] = tested on: NCI/ADR-RES; assay: NCI60 antitumor screening
[2] = tested on: SK-OV-3; assay: NCI60 antitumor screening
[3] = tested on: ovarian cancer subpanel; assay: NCI60 five-dose, subpanel VI
From the text: (§1) (2) The molar concentration of the compound responsible for total growth inhibition, also known as total growth inhibition (TGI).
(§2) Regarding subpanel selectivity toward certain cancer type, the method of determining a compound's selectivity index is to divide the full panel MG-MID (μM) value by each single subpanel. Values above six indicate high selectivity against the subpanel; moderate selectivity is denoted by values between three and six. Conversely, compounds are termed nonselective if their selectivity is less than three.[30,37]

[4] = tested on: SF-268; assay: NCI60 antitumor screening
[5] = tested on: OVCAR-5; assay: NCI60 antitumor screening
[6] = tested on: COLO 205; assay: NCI60 antitumor screening
[7] = tested on: NCI60 cell lines panel; assay: NCI60 antitumor screening, full panel
Outline: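 Single-concentration screen at 10 μM across the NCI60 panel (leukaemia, NSCLC, colon, CNS, melanoma, ovarian, renal, prostate, breast). Results are expressed as percent growth inhibition (GI%) of treated lines.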

[8] = tested on: U251; assay: NCI60 antitumor screening
[9] = tested on: MCF7; assay: NCI60 antitumor screening
[10] = tested on: SR; assay: NCI60 antitumor screening
[11] = tested on: SNB-75; assay: NCI60 antitumor screening
[12] = tested on: ACHN; assay: NCI60 antitumor screening
[13] = tested on: BT-549; assay: NCI60 antitumor screening
[14] = tested on: HCC-2998; assay: NCI60 antitumor screening
[15] = tested on: KM12; assay: NCI60 antitumor screening
[16] = tested on: EKVX; assay: NCI60 antitumor screening
[17] = tested on: renal cancer subpanel; assay: NCI60 five-dose, subpanel VII
From the text: as §1, §2

[18] = tested on: SK-MEL-2; assay: NCI60 antitumor screening; details: Homo sapiens; 10 μM single dose; SK-MEL-2 (melanoma); read-out: growth inhibition percent (GI%)
[19] = tested on: SNB-19; assay: NCI60 antitumor screening
[20] = tested on: HS 578T; assay: NCI60 antitumor screening
[21] = tested on: MDA-MB-231/ATCC; assay: NCI60 antitumor screening; details: Homo sapiens; 10 μM single dose; MDA-MB-231/ATCC (breast cancer); read-out: growth inhibition percent (GI%)
[22] = tested on: SF-295; assay: NCI60 antitumor screening
[23] = tested on: OVCAR-4; assay: NCI60 antitumor screening
[24] = tested on: MOLT-4; assay: NCI60 antitumor screening
[25] = tested on: NCI-H460; assay: NCI60 antitumor screening
[26] = full panel MG-MID / subpanel VI
[27] = full panel MG-MID / subpanel VII
[28] = Homo sapiens, OVCAR-4, five-dose

In the case of `N#Cc1c(-c2ccc(F)cc2)nc(SCc2ccc(F)cc2)nc1N1CCNCC1` [4f, 2-((4-Fluorobenzyl)thio)-4-(4-fluorophenyl)-6-(piperazin-1-yl) pyrimidine-5-carbonitrile], the GI50 ([1]; Homo sapiens, NCI/ADR-RES, five-dose) is reported as 13.7 µM, the CC50 ([1]; Homo sapiens, NCI/ADR-RES, five-dose, read-out: LC50 (the source's name)) is reported as 67.5 µM and the inhibition at 10 µM ([1]; Homo sapiens, 10 μM single dose, NCI/ADR-RES (ovarian cancer), read-out: growth inhibition percent (GI%)) is reported as greater than 100%. It also gave a TGI ([1]; five-dose) of 30.40 µM, a GI50 ([2]; Homo sapiens, SK-OV-3, five-dose) of 16 µM and a CC50 ([2]; Homo sapiens, SK-OV-3, five-dose, read-out: LC50 (the source's name)) of 55.4 µM. It also gave an inhibition at 10 µM ([2]; Homo sapiens, 10 μM single dose, SK-OV-3 (ovarian cancer), read-out: growth inhibition percent (GI%)) of 43.3%, a TGI ([2]; five-dose) of 29.80 µM and a GI50 ([3]; Homo sapiens, subpanel VI, read-out: MG-MID (GI50)) of 15 µM. For the same compound, the “Selectivity index (GI50)” value [3, 26] was 0.89, the “Selectivity index (TGI)” value [3, 26] was 0.86 and the “MG-MID (TGI)” value ([3]; subpanel VI) was 30.41 µM. For the same compound, the GI50 ([4]; Homo sapiens, SF-268, five-dose) was 14.1 µM, the CC50 ([4]; Homo sapiens, SF-268, five-dose, read-out: LC50 (the source's name)) was 67.5 µM and the inhibition at 10 µM ([4]; Homo sapiens, 10 μM single dose, SF-268 (CNS cancer), read-out: growth inhibition percent (GI%)) was 58.5%. For the same compound, the TGI ([4]; five-dose) was 30.90 µM, the GI% ([5]; 10 μM one-dose) was 99.16% and the GI50 ([5]; Homo sapiens, OVCAR-5, five-dose) was 14.5 µM. For the same compound, the CC50 ([5]; Homo sapiens, OVCAR-5, five-dose, read-out: LC50 (the source's name)) was 53.9 µM, the inhibition at 10 µM ([5]; Homo sapiens, 10 μM single dose, OVCAR-5 (ovarian cancer), read-out: growth inhibition percent (GI%)) was 99.2% and the TGI ([5]; five-dose) was 28.00 µM. The IC50 ([6]; Homo sapiens, COLO 205) was 1.83 µM, the GI50 ([6]; Homo sapiens, COLO 205, five-dose) was 1.83 µM and the CC50 ([6]; Homo sapiens, COLO 205, five-dose, read-out: LC50 (the source's name)) was 6.34 µM. For the same compound, the inhibition at 10 µM ([6]; Homo sapiens, 10 μM single dose, COLO 205 (colon cancer), read-out: growth inhibition percent (GI%)) was greater than 100%, the TGI ([6]; five-dose) was 3.40 µM and the “One-dose activity over the NCI60 panel” value ([7]; 10 μM) was “lethal to most of cell lines; also recorded: Lethal to almost all NCI60 cell lines”. The inhibition at 10 µM ([7]; Homo sapiens, 10 μM single dose, mean over NCI60 cell lines, read-out: Mean growth inhibition percent (GI%)) was greater than 100%, the GI50 ([7]; Homo sapiens, average of all cell lines, read-out: Full panel MG-MID (GI50)) was 13.5 µM and the “Full panel MG-MID (TGI)” value ([7]; average of all cell lines) was 26.45 μM and 26.45 ^e μM. It also gave an inhibition at 10 µM ([8]; Homo sapiens, U-251, 10 μM single dose, U251 (CNS cancer), read-out: growth inhibition percent (GI%)) greater than 100%, a GI50 ([8]; Homo sapiens, U-251, five-dose) of 10.3 µM and a CC50 ([8]; Homo sapiens, U-251, five-dose, read-out: LC50 (the source's name)) of 59.1 µM. It also gave a TGI ([8]; five-dose) of 24.70 µM, a GI50 ([9]; Homo sapiens, MCF7, five-dose) of 6.43 µM and a CC50 ([9]; Homo sapiens, MCF7, five-dose, read-out: LC50 (the source's name)) of 50.1 µM. The inhibition at 10 µM ([9]; Homo sapiens, 10 μM single dose, MCF7 (breast cancer), read-out: growth inhibition percent (GI%)) was greater than 100%, the TGI ([9]; five-dose) was 20.20 µM and the GI50 ([10]; Homo sapiens, SR, five-dose) was 2.18 µM. The CC50 ([10]; Homo sapiens, SR, five-dose, read-out: LC50 (the source's name)) was 17.5 µM, the inhibition at 10 µM ([10]; Homo sapiens, 10 μM single dose, SR (leukaemia), read-out: growth inhibition percent (GI%)) was greater than 100% and the TGI ([10]; five-dose) was 5.07 µM. For the same compound, the GI% ([11]; 10 μM one-dose) was 80.66%, the inhibition at 10 µM ([11]; Homo sapiens, 10 μM single dose, SNB-75 (CNS cancer), read-out: growth inhibition percent (GI%)) was 80.7% and the GI50 ([12]; Homo sapiens, ACHN, five-dose) was 15 µM. For the same compound, the LC50 ([12]; Homo sapiens, ACHN, five-dose) was 54.5 µM, the inhibition at 10 µM ([12]; Homo sapiens, 10 μM single dose, ACHN (renal cancer), read-out: growth inhibition percent (GI%)) was greater than 100% and the TGI ([12]; five-dose) was 28.60 µM. The GI50 ([13]; Homo sapiens, BT-549, five-dose) was 10.7 µM, the CC50 ([13]; Homo sapiens, BT-549, five-dose, read-out: LC50 (the source's name)) was 49.4 µM and the inhibition at 10 µM ([13]; Homo sapiens, 10 μM single dose, BT-549 (breast cancer), read-out: growth inhibition percent (GI%)) was 17.3%. It also gave a TGI ([13]; five-dose) of 23.00 µM, a GI50 ([14]; Homo sapiens, HCC 2998, five-dose) of 2.53 µM and a CC50 ([14]; Homo sapiens, HCC 2998, five-dose, read-out: LC50 (the source's name)) of 6.27 µM. The inhibition at 10 µM ([14]; Homo sapiens, 10 μM single dose, HCC-2998 (colon cancer), read-out: growth inhibition percent (GI%)) was greater than 100%, the TGI ([14]; five-dose) was 3.22 µM and the GI50 ([15]; Homo sapiens, KM12, five-dose) was 18 µM. The CC50 ([15]; Homo sapiens, KM12, five-dose, read-out: LC50 (the source's name)) was 63 µM, the inhibition at 10 µM ([15]; Homo sapiens, 10 μM single dose, KM12 (colon cancer), read-out: growth inhibition percent (GI%)) was greater than 100% and the TGI ([15]; five-dose) was 33.60 µM. The GI% ([16]; 10 μM one-dose) was 98.71%, the GI50 ([16]; Homo sapiens, EKVX, five-dose) was 13.1 µM and the LC50 ([16]; Homo sapiens, EKVX, five-dose) was 52.9 µM. The inhibition at 10 µM ([16]; Homo sapiens, 10 μM single dose, EKVX (non-small cell lung cancer), read-out: growth inhibition percent (GI%)) was 98.7%, the TGI ([16]; five-dose) was 26.40 µM and the GI50 ([17]; Homo sapiens, subpanel VII, read-out: MG-MID (GI50)) was 23.2 µM. For the same compound, the “Selectivity index (GI50)” value [17, 27] was 0.57, the “Selectivity index (TGI)” value [17, 27] was 0.94 and the “MG-MID (TGI)” value ([17]; subpanel VII) was 28.11 µM. It also gave an inhibition at 10 µM [18] greater than 100%, a GI50 ([19]; Homo sapiens, SNB-19, five-dose) of 14.9 µM and a CC50 ([19]; Homo sapiens, SNB-19, five-dose, read-out: LC50 (the source's name)) of 58.1 µM. The inhibition at 10 µM ([19]; Homo sapiens, 10 μM single dose, SNB-19 (CNS cancer), read-out: growth inhibition percent (GI%)) was 50.4%, the TGI ([19]; five-dose) was 29.40 µM and the GI50 ([20]; Homo sapiens, Hs-578T, five-dose) was 15.6 µM. For the same compound, the CC50 ([20]; Homo sapiens, Hs-578T, five-dose, read-out: LC50 (the source's name)) was 77 µM, the inhibition at 10 µM ([20]; Homo sapiens, 10 μM single dose, HS 578T (breast cancer), read-out: growth inhibition percent (GI%)) was greater than 100% and the TGI ([20]; five-dose) was 34.60 µM. For the same compound, the inhibition at 10 µM [21] was greater than 100%, the GI50 ([22]; Homo sapiens, SF-295, five-dose) was 16.6 µM and the CC50 ([22]; Homo sapiens, SF-295, five-dose, read-out: LC50 (the source's name)) was 57.5 µM. For the same compound, the inhibition at 10 µM ([22]; Homo sapiens, 10 μM single dose, SF-295 (CNS cancer), read-out: growth inhibition percent (GI%)) was greater than 100%, the TGI ([22]; five-dose) was 30.90 µM and the GI50 [23, 28] was 16.5 µM. The LC50 (lethal concentration, 50% cell kill) [23, 28] was 68.7 µM, the inhibition at 10 µM ([23]; Homo sapiens, 10 μM single dose, OVCAR-4 (ovarian cancer), read-out: growth inhibition percent (GI%)) was greater than 100% and the TGI ([23]; five-dose) was 33.60 µM. For the same compound, the GI% ([24]; 10 μM one-dose) was 92.21%, the GI50 ([24]; Homo sapiens, MOLT-4, five-dose) was 10.5 µM and the CC50 ([24]; Homo sapiens, MOLT-4, five-dose, read-out: LC50 (the source's name)) was 64.4 µM. The inhibition at 10 µM ([24]; Homo sapiens, 10 μM single dose, MOLT-4 (leukaemia), read-out: growth inhibition percent (GI%)) was 92.2%, the TGI ([24]; five-dose) was 26.00 µM and the GI50 ([25]; Homo sapiens, NCI-H460, five-dose) was 14.3 µM. For the same compound, the CC50 ([25]; Homo sapiens, NCI-H460, five-dose, read-out: LC50 (the source's name)) was 60.4 µM, the inhibition at 10 µM ([25]; Homo sapiens, 10 μM single dose, NCI-H460 (non-small cell lung cancer), read-out: growth inhibition percent (GI%)) was greater than 100% and the TGI ([25]; five-dose) was 29.40 µM.
